Here are results for 2 sequences from patent US10300451B2, “Method for generating an affinity reagent library” (priority 2013, dated 2019).

“Also recorded” adds a separate entry of the source.

The target in one assay is T1, cellular αVβ6 (Homo sapiens, UniProt P06756+P18564).
T1 construct: A375puro endogenously express the RGD directed integrins α5β1, αVβ3, αVβ5 and αVβ8; expressed in transfected cells; host or cells: A375Pβ6 (αVβ6-positive), with A375Ppuro as the αVβ6-negative control
Nature of the assay: Screening for integrin specificity by flow cytometry (A375Pβ6 vs A375Ppuro cells). The format is cell-based. As for the experimental part: Purified scFv were tested for specificity for αVβ6 by flow cytometry using the isogenic pairs of cell lines, […] and A375Ppuro, which express similar levels of four RGD-binding integrins (αVβ3, αVβ5, αVβ8, α5β1) but only […] express αVβ6. Briefly, cells were detached with trypsin/EDTA, rinsed twice in ice-cold wash buffer (0.1% BSA/DMEM/0.1% NaN3) and 2×10^5 cells re-suspended in 50 μl of wash buffer per sample. In between all incubation steps, all samples were washed twice with wash buffer unless otherwise stated. Cells were incubated on ice for 1 hr with 0.1 or 1 uM purified scFv of peptide, washed twice. For scFv, cells were then incubated for 1 hr on ice with mouse anti-Myc antibody (clone 9E10, Santa Cruz) at 1:100. After washing, bound antibody was detected with anti-mouse IgG-Alexaflour 488 (1:250 for 1 h; Molecular Probes), on ice. Bound VH-CDR3 derived peptide were detected by rabbit anti-biotin IgG (1:200), followed by anti-rabbit IgG-Alexafluor 488 (1:250; Molecular Probes). Cells were analysed using the FACSCalibur (Beckton Dickinson). Cell expression of αVβ6 integrin was detected with mouse monoclonal antibody (clone 10D5, 10 μg/ml; Millipore) and non-specific (control) binding with non-immune class matched IgG.
For orientation: Flow cytometry measures light scatter and fluorescence of single cells or particles in a stream.

The next assay concerns the target T2, αVβ6 (Homo sapiens, UniProt P06756+P18564).
T2 construct: A375puro endogenously express the RGD directed integrins α5β1, αVβ3, αVβ5 and αVβ8; expressed in transfected cells; host or cells: αVβ6-expressing cells; The method paragraph names no line
Put plainly: Inhibition of biotinylated-A20FMDV2 binding to αVβ6 expressing cells. The format is cell-based. The note with it: scFv or peptide 0.1 and 1.0 μM; biotinylated A20FMDV2 10 nM.

The subject of assay [1] is αVβ6-dependent adhesion of carcinoma cells to immobilised fibronectin. Put plainly: Picogreen adhesion assay on fibronectin. In kind it is cell-based, human. The note with it: fibronectin 10 ug/ml. As for the experimental part:
All adhesion assays were performed in quadruplicate and repeated at least 2-3 times. In a 96-well plate format, test wells were coated with Fibronectin (10 ug/ml/PBS) and negative control wells were coated with 0.1% BSA (bovine serum albumin)/PBS. After incubation at 37° C. for 1 hour, plates were washed in PBS thwice and blocked with 0.1% BSA/PBS for 30 mins at 37° C. Following a PBS rinse, cells were seeded into the wells, the plate resting on ice to avoid dehydration and to ensure an initial uniform temperature for the experiment. Purified scFv or peptide was added (25 ul) to the wells at the desired concentrations, before adding 1.5×10^4 cells (25 ul) per well. In some experiments, cells (1.5×10^4) were pre-treated with β1 blocking antibody AIIB2 at 10 ug/ml before seeding into test wells. To determine percentage adhesion, standard curves were generated by plating 0-2.5×10^4 cells in separate wells. After incubating plates at 37° C. for 30′ plates were washed twice in 1 mM CaCl2/0.5 mM MgCl2/PBS and transferred into −80° C. for 15 mins. Adherent cells were quantified using a Picogreen kit (Invitrogen) and analysed on a fluorescence reader (FLUOstar Optima, BMG Labtech Ltd, Bucks, UK).

For the next assay, the system named is αVβ6-expressing cells. Nature of the assay: Internalisation assay (confocal microscopy). The note with it: for intracellular localisation after incubation: 37° C. for 45 minutes, αVβ6-expressing cells; for cellular internalisation in αVβ6-expressing cells: 37° C., 0 and 45 minutes. In kind it is cell-based, human. Here is the method: In 24-well culture plates, 2×10^4 cells (DX3puro, DX3β6 or VB6) were seeded onto 13 mm diameter glass coverslips and allowed to incubate overnight at 37° C. in growth medium. Cells were washed thwice in serum free medium (SFM) and then scFv (4 uM) or biotinylated-CDR3-peptide (100 nM) diluted in SFM added on ice for 10 mins. After two ice-cold washes and a further 10 mins on ice with mouse anti-biotin antibody (10 ug/ml) pre-warmed media containing 10% FCS was added to the cells and incubated at 37° C. At 10 min intervals between 0-60 mins, cells were fixed in 2% HCHO in PBS and permeabilised with 0.1% TritonX-100 (PBS) for 3 mins. scFv was detected with mouse anti c-myc (1:100 dilution, clone 9E10; 30 mins, ambient temperature) and followed by while peptides were detected by rabbit anti-biotin IgG (1:200). Both peptide and scFv detected with anti-mouse Alexa488 for 30′. Nuclei were counter-labelled with 4′,6-diamidino-2-phenylindole (DAPI), coverslips mounted with Mowiol and samples examined by confocal microscopy (Zeiss LSM510, Welwyn Garden City).

T2 sequence (P06756 31-889 limits assumed): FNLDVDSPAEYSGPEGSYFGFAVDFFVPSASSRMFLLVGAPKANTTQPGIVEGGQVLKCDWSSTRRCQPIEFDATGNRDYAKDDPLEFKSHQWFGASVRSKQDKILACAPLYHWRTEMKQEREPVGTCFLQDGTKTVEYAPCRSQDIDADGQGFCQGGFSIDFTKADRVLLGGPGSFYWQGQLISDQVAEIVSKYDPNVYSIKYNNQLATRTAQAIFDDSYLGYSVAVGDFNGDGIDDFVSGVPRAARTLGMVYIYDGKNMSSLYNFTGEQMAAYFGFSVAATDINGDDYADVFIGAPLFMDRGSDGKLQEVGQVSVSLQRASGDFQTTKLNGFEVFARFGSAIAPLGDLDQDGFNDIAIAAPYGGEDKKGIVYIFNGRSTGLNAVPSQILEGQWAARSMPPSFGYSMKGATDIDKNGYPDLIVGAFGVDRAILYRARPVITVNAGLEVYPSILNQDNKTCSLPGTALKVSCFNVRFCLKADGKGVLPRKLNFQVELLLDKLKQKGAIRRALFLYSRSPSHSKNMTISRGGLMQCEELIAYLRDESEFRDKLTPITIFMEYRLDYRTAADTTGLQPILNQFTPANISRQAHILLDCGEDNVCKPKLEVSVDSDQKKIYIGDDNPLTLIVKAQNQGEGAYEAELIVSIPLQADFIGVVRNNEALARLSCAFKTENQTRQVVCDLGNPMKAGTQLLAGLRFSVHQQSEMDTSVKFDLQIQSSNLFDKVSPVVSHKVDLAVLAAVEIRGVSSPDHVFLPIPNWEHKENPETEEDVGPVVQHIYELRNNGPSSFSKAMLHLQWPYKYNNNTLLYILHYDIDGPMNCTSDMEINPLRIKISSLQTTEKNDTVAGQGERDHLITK
T2 sequence (P06756 891-1048 limits assumed): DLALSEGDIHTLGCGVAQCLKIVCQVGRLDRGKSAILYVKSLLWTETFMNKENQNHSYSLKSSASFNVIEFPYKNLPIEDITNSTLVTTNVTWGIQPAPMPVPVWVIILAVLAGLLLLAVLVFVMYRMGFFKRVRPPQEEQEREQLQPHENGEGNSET
T2 sequence (P18564 22-788): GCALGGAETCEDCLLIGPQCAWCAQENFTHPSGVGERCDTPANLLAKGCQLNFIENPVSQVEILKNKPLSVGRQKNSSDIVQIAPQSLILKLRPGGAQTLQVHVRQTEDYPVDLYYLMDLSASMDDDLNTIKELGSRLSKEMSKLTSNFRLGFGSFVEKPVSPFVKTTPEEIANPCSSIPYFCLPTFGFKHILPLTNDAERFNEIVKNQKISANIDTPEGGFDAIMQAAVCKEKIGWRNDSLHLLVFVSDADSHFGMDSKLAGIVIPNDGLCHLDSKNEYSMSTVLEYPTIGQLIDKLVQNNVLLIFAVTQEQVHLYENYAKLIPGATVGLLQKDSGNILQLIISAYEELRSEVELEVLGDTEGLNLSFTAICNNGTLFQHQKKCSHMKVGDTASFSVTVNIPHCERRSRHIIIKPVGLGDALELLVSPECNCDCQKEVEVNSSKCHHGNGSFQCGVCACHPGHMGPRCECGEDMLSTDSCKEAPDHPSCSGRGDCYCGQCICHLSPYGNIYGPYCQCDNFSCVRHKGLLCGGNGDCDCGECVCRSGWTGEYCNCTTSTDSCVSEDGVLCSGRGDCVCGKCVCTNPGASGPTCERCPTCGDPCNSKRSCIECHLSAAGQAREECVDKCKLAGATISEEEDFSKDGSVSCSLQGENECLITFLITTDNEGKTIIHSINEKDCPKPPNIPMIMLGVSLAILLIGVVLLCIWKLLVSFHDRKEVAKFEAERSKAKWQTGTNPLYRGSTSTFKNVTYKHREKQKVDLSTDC
T1 sequence (P06756 31-889 limits assumed): as the sequence (P06756 31-889 limits assumed) above
T1 sequence (P06756 891-1048 limits assumed): as the sequence (P06756 891-1048 limits assumed) above
T1 sequence (P18564 22-788): as the sequence (P18564 22-788) above

Take “QPRGDLRELAARSEAQLQEKGI (Peptide sequence comprising RGD motif followed by a C-terminal alpha-helix or 3(10)-helix) [D34p]”: the “binding to αVβ6-expressing cells (flow cytometry)” value with cellular αVβ6 is “αVβ6-specific binding”. Further, the “inhibition of binding of A20FMDV2 peptide to cellular αvβ6” value with αVβ6 is “dose-dependent inhibition”. The “inhibition of αVβ6-dependent adhesion of carcinoma cells to immobilised fibronectin” value in assay [1] is “inhibited; also recorded: significant concentration-dependent inhibition”. Besides, in the assay with αVβ6-expressing cells, the “intracellular localisation after incubation” value is “nuclear localisation was not seen”, the “cellular internalisation in αVβ6-expressing cells” value was “Internalisation” and the “cellular internalisation in αVβ6-negative cells” value is on record as “No peptide internalization was observed”.
On to “EPRGDLRTLAAREKRNFNETLARLQEKGI (Peptide sequence comprising RGD motif followed by a C-terminal alpha-helix or 3(10)-helix) [D25p]”, for which the “binding to αVβ6-expressing cells (flow cytometry)” value with cellular αVβ6 is “αVβ6-specific binding”. Further, the “inhibition of binding of A20FMDV2 peptide to cellular αvβ6” value in the assay with αVβ6 was “dose-dependent inhibition”. The “inhibition of αVβ6-dependent adhesion of carcinoma cells to immobilised fibronectin” value in assay [1] was “inhibited; also recorded: significant concentration-dependent inhibition”. Further, in the assay with αVβ6-expressing cells, the “intracellular localisation after incubation” value is “nuclear localisation was not seen”, the “cellular internalisation in αVβ6-expressing cells” value is reported as “Internalisation” and the “cellular internalisation in αVβ6-negative cells” value is on record as “No peptide internalization was observed”.
